pEC50: −log10 of the molar value.

The test concerns the target T1, a4b7 integrin interaction with MadCAM-1 (Homo sapiens, UniProt P13612+P26010).
T1 construct: capture of a4b7 integrin expressing cells, RPMI8866; endogenous in cells; host or cells: RPMI8866
T1 sequence (P13612 34-1032): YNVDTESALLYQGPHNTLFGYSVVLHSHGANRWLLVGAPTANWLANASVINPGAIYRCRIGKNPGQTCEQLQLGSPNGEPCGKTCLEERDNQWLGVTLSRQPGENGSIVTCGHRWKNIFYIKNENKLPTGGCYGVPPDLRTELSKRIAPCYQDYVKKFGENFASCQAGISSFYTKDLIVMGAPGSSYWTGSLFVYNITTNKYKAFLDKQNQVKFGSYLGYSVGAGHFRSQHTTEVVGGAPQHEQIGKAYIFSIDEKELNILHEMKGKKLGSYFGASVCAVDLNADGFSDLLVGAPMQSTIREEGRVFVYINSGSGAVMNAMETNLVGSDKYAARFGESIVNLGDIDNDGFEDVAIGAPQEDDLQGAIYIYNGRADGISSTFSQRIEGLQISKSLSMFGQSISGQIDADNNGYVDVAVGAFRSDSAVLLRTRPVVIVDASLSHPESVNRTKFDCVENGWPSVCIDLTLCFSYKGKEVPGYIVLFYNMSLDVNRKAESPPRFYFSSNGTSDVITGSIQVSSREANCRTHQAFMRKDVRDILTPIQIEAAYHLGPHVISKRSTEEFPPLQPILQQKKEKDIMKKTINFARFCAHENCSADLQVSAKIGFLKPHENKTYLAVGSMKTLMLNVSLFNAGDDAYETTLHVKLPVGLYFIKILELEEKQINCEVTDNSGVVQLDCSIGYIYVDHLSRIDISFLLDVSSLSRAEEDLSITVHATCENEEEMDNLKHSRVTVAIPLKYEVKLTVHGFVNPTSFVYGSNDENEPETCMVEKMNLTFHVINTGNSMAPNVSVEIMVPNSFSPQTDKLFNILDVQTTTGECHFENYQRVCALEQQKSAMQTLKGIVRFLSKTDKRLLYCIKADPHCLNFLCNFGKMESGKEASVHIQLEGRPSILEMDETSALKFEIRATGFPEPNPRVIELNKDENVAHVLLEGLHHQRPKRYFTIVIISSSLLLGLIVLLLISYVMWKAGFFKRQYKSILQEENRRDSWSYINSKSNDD
T1 sequence (P26010 20-798): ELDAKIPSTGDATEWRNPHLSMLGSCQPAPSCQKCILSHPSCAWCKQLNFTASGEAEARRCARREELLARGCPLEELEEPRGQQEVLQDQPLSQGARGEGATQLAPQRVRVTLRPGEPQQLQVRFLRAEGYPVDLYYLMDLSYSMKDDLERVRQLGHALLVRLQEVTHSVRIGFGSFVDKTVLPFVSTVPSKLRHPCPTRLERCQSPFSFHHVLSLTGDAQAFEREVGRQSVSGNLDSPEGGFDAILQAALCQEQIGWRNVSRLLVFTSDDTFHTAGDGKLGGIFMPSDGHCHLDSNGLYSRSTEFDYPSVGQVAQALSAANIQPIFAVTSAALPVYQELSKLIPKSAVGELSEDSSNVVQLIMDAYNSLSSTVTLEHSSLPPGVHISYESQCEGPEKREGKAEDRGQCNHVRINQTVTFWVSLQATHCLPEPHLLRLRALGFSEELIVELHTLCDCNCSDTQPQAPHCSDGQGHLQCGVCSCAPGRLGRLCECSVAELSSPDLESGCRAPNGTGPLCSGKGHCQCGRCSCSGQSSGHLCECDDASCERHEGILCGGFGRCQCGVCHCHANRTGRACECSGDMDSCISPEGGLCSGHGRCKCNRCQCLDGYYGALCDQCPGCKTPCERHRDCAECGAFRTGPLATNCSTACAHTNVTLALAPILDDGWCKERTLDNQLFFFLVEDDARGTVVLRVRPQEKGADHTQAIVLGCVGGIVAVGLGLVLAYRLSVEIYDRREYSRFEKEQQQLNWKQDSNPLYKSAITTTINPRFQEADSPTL
Put plainly: a4b7 Cell Capture Assay (RPMI8866 cells on MAdCAM-1 Fc coated plates). The format is cell-based. Conditions: 50% human serum, 1 mM MgCl2, 1 hour incubation, CellTiter-Glo luminescence, read-out: a4B7 cell capture assay RMPI8866-MadCAM EC50. Put shortly: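 RPMI8866 cells (1.0×10^6 cells/mL) in 1 mM MgCl2, 25 mM HEPES, 50% human serum were added to plates coated with human MAdCAM-1–IgG1 Fc (1.0 μg/mL) and exposed to compound (9-point, 0.08–1000 nM, 0.1% DMSO) for 1 h at 37 °C. Bound cells were read by CellTiter-Glo luminescence. IC50 came from 4-parameter fit of normalized % inhibition.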
For orientation: ATP-based viability assays read luminescence as a measure of living cells.
A word on the pEC50: it is −log10 of the EC50, conventionally taken in molar units. Consider `Cc1cc(Cl)cc2c1-c1cc(c(F)c(C(F)(F)F)c1)[C@H](CC(=O)O)NC(=O)[C@@H](n1cc(CCN3CC(F)C3)c(C(F)(F)F)cc1=O)c1cccc(c1)O2` (single isomer, unassigned) [Example 11], for which the pEC50 is 6.47.

Consider `Cc1cccc2c1-c1cc(c(F)c(C(F)(F)F)c1)[C@H](CC(=O)O)NC(=O)[C@@H](n1cc(CCN3CC(F)C3)c(C(F)(F)F)cc1=O)c1cc(Cl)cc(c1)O2` (relative stereo) [Example 15, [(14R*,17S)-11-chloro-19-fluoro-14-{5-[2-(3-fluoroazetidin-1-yl)ethyl]-2-oxo-4-(trifluoromethyl)pyridin-1-yl}-3-methyl-15-oxo-20-(trifluoromethyl)-8-oxa-16-azatetracyclo[16.3.1.1^{9,13}.0^{2,7}]tricosa-1(22),2(7),3,5,9,11,13(23),18,20-nonaen-17-yl]acetic acid], for which the pEC50 was 7.55.

`Cc1cc2cc(c1F)[C@H](CC(=O)O)NC(=O)[C@@H](n1cc(CCN3CC(F)C3)c(C(F)(F)F)cc1=O)c1cc(ccc1F)Oc1cccc(C)c1-2` (relative stereo) [Example 7, [(14R*,17S)-12,19-difluoro-14-{5-[2-(3-fluoroazetidin-1-yl)ethyl]-2-oxo-4-(trifluoromethyl)pyridin-1-yl}-3,20-dimethyl-15-oxo-8-oxa-16-azatetracyclo[16.3.1.1^{9,13}.0^{2,7}]tricosa-1(21),2(7),3,5,9(23),10,12,18(22),19-nonaen-17-yl]acetic acid]: the pEC50 is 8.96.

As to `Cc1cc2cc(c1F)[C@H](CC(=O)O)NC(=O)[C@@H](n1cc(CCN3CC(F)C3)c(C(F)(F)F)cc1=O)c1cc(Cl)cc(c1)Oc1cccc(C)c1-2` (single isomer, unassigned) [Example 3], the pEC50 is 7.92.

For `Cc1cc(C2CC2)cc2c1-c1cc(c(F)c(C(F)(F)F)c1)[C@H](CC(=O)O)NC(=O)[C@@H](n1cc(CCN3CC(F)C3)c(C(F)(F)F)cc1=O)c1cccc(c1)O2` (relative stereo) [Example 10, [(14R*,17S)-5-cyclopropyl-19-fluoro-14-{5-[2-(3-fluoroazetidin-1-yl)ethyl]-2-oxo-4-(trifluoromethyl)pyridin-1-yl}-3-methyl-15-oxo-20-(trifluoromethyl)-8-oxa-16-azatetracyclo[16.3.1.1^{9,13}.0^{2,7}]tricosa-1(21),2(7),3,5,9,11,13(23),18(22),19-nonaen-17-yl]acetic acid], the pEC50 was 6.44.

Regarding `Cc1cc2cc(c1F)[C@H](CC(=O)O)NC(=O)[C@@H](n1cc(CCN3CC(F)C3)c(C(F)(F)F)cc1=O)c1cccc(c1)Oc1cccc(C)c1-2` (relative stereo) [Example 1, rel-2-((5S,8S)-1^4-fluoro-5-(5-(2-(3-fluoroazetidin-1-yl)ethyl)-2-oxo-4-(trifluoromethyl)pyridin-1(2H)-yl)-1^5,2^6-dimethyl-6-oxo-3-oxa-7-aza-1,4(1,3),2(1,2)-tribenzenacyclooctaphane-8-yl)acetic acid], the pEC50 was 7.23.

`Cc1cc(C)c2c(c1)Oc1cccc(c1)[C@H](n1cc(CCCN(C)C)c(C(F)(F)F)cc1=O)C(=O)N[C@@H](CC(=O)O)c1cn-2nc1C(F)(F)F` (relative stereo) [Example 18, [(13S,16R*)-16-{5-[3-(dimethylamino)propyl]-2-oxo-4-(trifluoromethyl)pyridin-1-yl}-5,7-dimethyl-15-oxo-11-(trifluoromethyl)-2-oxa-9,10,14-triazatetracyclo[15.3.1.1^{9,12}.0^{3,8}]docosa-1(20),3(8),4,6,10,12(22),17(21),18-octaen-13-yl]acetic acid]: the pEC50 is 8.04.

The values above are taken from US20240279214A1, “ALPHA4 BETA7 INEGRIN ANTAGONISTS AND USES THEREOF” (XinThera, Inc., priority 2022, published 2024).
